Assay results taken from article PMC4775997, “Imidazopyridazine Inhibitors of Plasmodium falciparum Calcium-Dependent Protein Kinase 1 Also Target Cyclic GMP-Dependent Protein Kinase and Heat Shock Protein 90 To Kill the Parasite at Different Stages of Intracellular Development” (Antimicrobial Agents and Chemotherapy, 2016).
Read-outs that look alike come from different tables or passages of the source.

How the values were obtained:
PfPKG = target: T1, PfPKG (Plasmodium falciparum, UniProt Q8I719); experiment: Microfluidic fluorescent shift assay of cGMP-dependent protein kinase activity; format: biochemical; conditions: read-out: Enzyme inhibition IC50, PKG
T1 construct: plasmids (pTrcHisC) encoding full-length PfPKG and PfPKG T618Q with N-terminal His tags; His tag (N); made in house; host or cells: E. coli Rosetta2(DE3)

PfPKG T618Q = target: T2, PfPKG T618Q (Plasmodium falciparum, UniProt Q8I719, T618Q); experiment: biochemical; format: biochemical; conditions: for IC50: read-out: Enzyme inhibition IC50, PKG T618Q
T2 construct: plasmids (pTrcHisC) encoding full-length PfPKG and PfPKG T618Q with N-terminal His tags; His tag (N); made in house; host or cells: E. coli Rosetta2(DE3)

P. falciparum 3D7 [1] = experiment: SYBR green I growth assay, wild-type parasites; format: cell-based, Plasmodium falciparum
CDPK1 = CDPK1 (Plasmodium falciparum, UniProt P62344); experiment: biochemical; format: biochemical; conditions: read-out: Enzyme inhibition IC50, CDPK1
P. falciparum 3D7 [2] = experiment: Microscopic examination of Giemsa-stained smears (stage of action); conditions: for Stage of action (before or after DNA synthesis): Table S1, ring-stage parasites, 10x EC50 for 48 h; for Stage of action: ring stage parasites treated with 10 times the 96-h EC50 for 48 h
3D7 PKG T618Q = experiment: microbe, parasite or virus in culture; format: cell-based, Plasmodium falciparum; conditions: for EC50: read-out: Parasite inhibition EC50, 3D7 PKG T618Q; for Ratio 3D7 PKG T618Q/3D7: Table S2
[3] = Table S1, single experiment with duplicate samples, or mean of triplicate experiments (SD), read-out: EC50 48 hours
[4] = Table S1, single experiment with duplicate samples, or mean of triplicate experiments (SD), read-out: EC50 96 hours
[5] = Plasmodium falciparum, 3D7, 96 h
[6] = Plasmodium falciparum, 3D7, 48 h, read-out: EC50 after treatment for 48 h
[7] = Plasmodium falciparum, 3D7, 96 h, read-out: EC50 96 hours
[8] = Plasmodium falciparum, 3D7, 96 h, read-out: EC50 after treatment for 96 h
[9] = Plasmodium falciparum, 3D7, 96 h, read-out: Parasite inhibition EC50, 3D7
[10] = Table 2, SYBR green I, 96 h, single experiment, or mean (SD) of duplicate assays
[11] = Table 2, SYBR green I, 96 h, single experiment, or mean (SD) of duplicate assays, read-out: Parasite inhibition EC50, 3D7

T2 sequence (Q8I719 whole entry T618Q): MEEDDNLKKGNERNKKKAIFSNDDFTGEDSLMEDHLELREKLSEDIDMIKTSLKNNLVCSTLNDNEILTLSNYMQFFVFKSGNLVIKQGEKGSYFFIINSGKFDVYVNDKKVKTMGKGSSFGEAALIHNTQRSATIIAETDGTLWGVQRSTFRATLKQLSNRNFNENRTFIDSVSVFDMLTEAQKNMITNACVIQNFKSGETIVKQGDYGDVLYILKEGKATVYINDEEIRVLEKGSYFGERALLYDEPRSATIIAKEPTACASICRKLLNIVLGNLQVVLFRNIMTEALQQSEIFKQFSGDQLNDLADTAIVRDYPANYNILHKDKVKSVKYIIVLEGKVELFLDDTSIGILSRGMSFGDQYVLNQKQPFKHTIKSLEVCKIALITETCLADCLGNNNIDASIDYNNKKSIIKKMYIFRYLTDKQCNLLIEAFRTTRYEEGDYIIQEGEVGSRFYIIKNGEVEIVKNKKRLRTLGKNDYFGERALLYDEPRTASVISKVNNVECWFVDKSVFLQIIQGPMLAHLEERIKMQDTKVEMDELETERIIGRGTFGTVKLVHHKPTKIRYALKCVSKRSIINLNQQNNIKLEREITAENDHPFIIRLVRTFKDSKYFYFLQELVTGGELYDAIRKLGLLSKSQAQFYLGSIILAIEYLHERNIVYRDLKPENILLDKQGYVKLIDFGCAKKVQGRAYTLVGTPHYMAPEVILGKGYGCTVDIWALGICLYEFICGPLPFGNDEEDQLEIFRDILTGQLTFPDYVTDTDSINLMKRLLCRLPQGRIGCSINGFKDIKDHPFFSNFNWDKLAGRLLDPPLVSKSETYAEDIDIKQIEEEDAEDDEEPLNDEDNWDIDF
CDPK1, sequence (P62344 whole entry): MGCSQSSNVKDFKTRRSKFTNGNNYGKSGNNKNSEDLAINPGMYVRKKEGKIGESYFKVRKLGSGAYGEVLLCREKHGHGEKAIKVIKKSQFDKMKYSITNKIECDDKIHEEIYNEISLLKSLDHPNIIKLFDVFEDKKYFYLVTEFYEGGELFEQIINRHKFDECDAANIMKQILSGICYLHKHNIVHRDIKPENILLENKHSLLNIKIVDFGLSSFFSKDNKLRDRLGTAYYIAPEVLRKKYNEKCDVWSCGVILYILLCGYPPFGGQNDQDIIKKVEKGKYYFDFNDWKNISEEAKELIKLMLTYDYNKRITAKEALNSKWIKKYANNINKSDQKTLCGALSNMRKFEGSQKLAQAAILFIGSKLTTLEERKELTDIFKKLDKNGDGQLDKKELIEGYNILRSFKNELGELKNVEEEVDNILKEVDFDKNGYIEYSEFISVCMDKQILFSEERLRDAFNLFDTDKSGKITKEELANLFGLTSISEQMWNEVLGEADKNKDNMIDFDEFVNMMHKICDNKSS

| SMILES | IC50 (PfPKG; Table S2) [µM] | IC50 (PfPKG T618Q; Table S2) [µM] | EC50 (P. falciparum 3D7 [1]; [3]) [µM] | EC50 (P. falciparum 3D7 [1]; [4]) [µM] | ratio EC5048:EC5096 (P. falciparum 3D7 [1]; Table S1) | Selectivity PKG T618Q/PKG (PfPKG T618Q; Table S2) | IC50 (CDPK1; Table S2) [µM] | other results |
| --- | --- | --- | --- | --- | --- | --- | --- | --- |
| CN1CCC(Nc2ccc3ncc(-c4cc(F)c(Nc5ccccn5)c(F)c4)n3n2)CC1 [Compound 2] | 0.069 | 12.8 | 1.28 | 1.04 | – | – | – | – |
| CN1CCC(Nc2ccc3ncc(-c4ccc(Nc5cnccn5)cc4)n3n2)CC1 [Compound 3] | – | – | 0.76 | 0.61 | 1.3 | – | – | – |
| CC(C)CCNc1ccc(-c2cnc3ccc(N4CCC(N(C)C)CC4)nn23)cn1 [Compound 5] | – | – | 0.54 | 0.39 | 1.4 | – | – | – |
| CC(C)CCNc1ccc(-c2cnc3ccc(NC4CCN(C)C4)nn23)cn1 (centres unmarked) [Compound 6] | – | – | 0.59 | 0.42 | 1.4 | – | – | – |
| CN1CCC(Nc2ccc3ncc(-c4cc(F)c(Nc5ncccc5F)c(F)c4)n3n2)CC1 [Compound 8] | 0.237 | 64.6 | 0.99 | 0.66 | 1.5 | 272 | 0.017 | – |
| NC1CCC(Nc2ccc3ncc(-c4ccc(Nc5ncccc5F)cc4)n3n2)CC1 (centres unmarked) [Compound 9] | 0.048 | 16.8 | 0.62 | 0.4 | – | – | – | – |
| c1ccc(-n2cc(-c3cnc4ccc(NC5CCNCC5)nn34)cn2)cc1 [Compound 10] | – | – | 0.72 | 0.46 | 1.6 | – | – | – |
| CC(C)CCNc1ccc(-c2cnc3ccc(NC4CCNCC4)nn23)cn1 [Compound 11] | 0.256 | 256 | 0.96 | 0.6 | 1.6 | 1000 | 0.015 | – |
| CC(C)CCNc1ccc(-c2cnc3ccc(N4CCC(N)CC4)nn23)cn1 [Compound 12] | – | – | 0.41 | 0.25 | 1.6 | – | – | – |
| Fc1cccnc1Nc1ccc(-c2cnc3ccc(NC4CCNCC4)nn23)cc1 [Compound 13] | 0.162 | 3.68 | 1.25 | 0.76 | 1.7 | 23 | 0.014 | – |
| CCCCNc1ccc(-c2cnc3ccc(N4CCN(C)CC4)nn23)cn1 [Compound 14] | – | – | 2.1 | 1.18 | 1.8 | – | – | – |
| CN1CCC(Nc2ccc3ncc(-c4cnc(Nc5cnccn5)c(F)c4)n3n2)CC1 [Compound 15] | 0.249 | 51.3 | 1.74 | 0.96 | 1.9 | 206 | 0.02 | – |
| CN1CCC(Nc2ccc3ncc(-c4ccc(Nc5ccccn5)c(F)c4)n3n2)CC1 [Compound 16] | 0.088 | 10.6 | – | – | – | – | – | – |
| CN1CCC(Nc2ccc3ncc(-c4ccc(Nc5ncccc5F)nc4)n3n2)CC1 [Compound 17] | 0.118 | 12.1 | 1.15 | 0.58 | – | – | – | – |
| CN1CCC(Nc2ccc3ncc(-c4ccc(Nc5ncccc5F)cc4)n3n2)CC1 [Compound 18] | 0.404 | 15.7 | 1.22 | 0.6 | – | – | – | – |
| CCCCNc1ccc(-c2cnc3ccc(N4CCC(N)CC4)nn23)cn1 [Compound 19] | – | – | 0.57 | 0.26 | 2.2 | – | – | – |
| Fc1cc(-c2cnc3ccc(NC4CCNCC4)nn23)ccc1Nc1ccccn1 [Compound 21] | 0.087 | 3.77 | 1.63 | 0.69 | 2.4 | 44 | 0.01 | – |
| CC(C)CCNc1ncc(-c2cnc3ccc(NC4CCN(C)CC4)nn23)cn1 [Compound 23] | 0.16 | 4.76 | 2.49 | 0.99 | 2.5 | 30 | 0.014 | – |

| SMILES | IC50 (PfPKG; Table S2) [µM] | IC50 (PfPKG T618Q; Table S2) [µM] | EC50 (P. falciparum 3D7 [1]; [3]) [µM] | EC50 (P. falciparum 3D7 [1]; [4]) [µM] | ratio EC5048:EC5096 (P. falciparum 3D7 [1]; Table S1) | Selectivity PKG T618Q/PKG (PfPKG T618Q; Table S2) | IC50 (CDPK1; Table S2) [µM] | other results |
| --- | --- | --- | --- | --- | --- | --- | --- | --- |
| Fc1cccnc1Nc1ccc(-c2cnc3ccc(NC4CCNCC4)nn23)cn1 [Compound 24] | 0.062 | 1.25 | 2.45 | 0.71 | 3.4 | 20 | 0.011 | – |
| Fc1cc(-c2cnc3ccc(NC4CCNCC4)nn23)cnc1Nc1ccccn1 [Compound 25] | 0.054 | 9.93 | 1.96 | 0.54 | 3.6 | 182 | 0.013 | – |
| c1ccc(Nc2ncc(-c3cnc4ccc(NC5CCNCC5)nn34)cn2)nc1 [Compound 26] | 0.02 | 3.28 | 0.83 | 0.2 | 4.2 | 161 | 0.009 | – |
| Fc1cc(-c2cnc3ccc(NC4CCNCC4)nn23)cnc1Nc1cnccn1 [Compound 27] | 0.101 | 10 | 4.3 | 0.84 | 5.1 | 99 | 0.017 | – |
| CC(C)CCNc1ncc(-c2cnc3ccc(NC4CCNCC4)nn23)cn1 [Compound 29] | 0.093 | 0.88 | 3.46 | 0.64 | 5.4 | 10 | 0.018 | – |
| Fc1cccnc1Nc1ncc(-c2cnc3ccc(NCCN4CCNCC4)nn23)cn1 [Compound 30] | – | – | 0.31 | 0.05 | 6.0 | – | – | – |
| Fc1cccnc1Nc1ncc(-c2cnc3ccc(NC4CCNCC4)nn23)cn1 [Compound 32] | 0.007 | 6.16 | 1.79 | 0.11 | 16.6 | 931 | 0.01 | – |
| CN1CCC(Nc2ccc3ncc(-c4cnc(Nc5ncccc5F)nc4)n3n2)CC1 [Compound 33] | 0.005 | 10 | – | 0.03 | – | – | – | – |
| c1nc(N2CCCCC2)ncc1-c1cnc2ccc(NC3CCNCC3)nn12 [Compound 34] | – | – | – | 1.18 | – | – | – | – |
| NC1CCC(Nc2ccc3ncc(-c4cnc(Nc5ncccc5F)nc4)n3n2)CC1 (centres unmarked) [Compound 36] | – | – | – | – | – | – | – | Stage of action (before or after DNA synthesis) (P. falciparum 3D7 [2]): late schizont; Stage of action (P. falciparum 3D7 [2]): Late schizont; EC50 (3D7 PKG T618Q; [5]): 0.901 µM; EC50 (P. falciparum 3D7 [1]; [6]): > 1000 µM; EC50 (P. falciparum 3D7 [1]; [7]): 0.02 µM; EC50 (P. falciparum 3D7 [1]; [8]): 0.023 µM; EC50 (P. falciparum 3D7 [1]; [9]): 0.034 µM; EC50 after treatment for 48 h (P. falciparum 3D7 [1]; SYBR green I, 48 h incubation, mean of three independent experiments (SD)): not able to be determined with any accuracy |
| CC(C)CCNc1ncc(-c2cnc3ccc(NC4CCC(N)CC4)nn23)cn1 (centres unmarked) [Compound 37] | – | – | – | 0.65 | – | – | – | – |
| Fc1cccnc1Nc1ncc(-c2cnc3ccc(NC4CCC(N5CCCC5)CC4)nn23)cn1 (centres unmarked) [Compound 39] | – | – | – | – | – | – | – | IC50 (PfPKG; Table 2, ATP at Km 20 μM): 0.002 µM; Stage of action (before or after DNA synthesis) (P. falciparum 3D7 [2]): late schizont; Stage of action (P. falciparum 3D7 [2]): Late schizont; EC50 (3D7 PKG T618Q; [10]): 0.982 µM; Decrease in potency against the PKG T618Q variant parasite (3D7 PKG T618Q; versus 3D7 WT, 96 h SYBR green I): 29 fold; IC50 (PfPKG T618Q; Table 2, ATP at Km 90 μM): 25.5 µM; EC50 (P. falciparum 3D7 [1]; SYBR green I, 48 h incubation, mean of three independent experiments (SD), read-out: EC50 after treatment for 48 h): > 1000 µM; EC50 (P. falciparum 3D7 [1]; SYBR green I, 96 h incubation, mean of three independent experiments (SD), read-out: EC50 after treatment for 96 h): 0.02 µM; EC50 (P. falciparum 3D7 [1]; [11]): 0.034 µM |
| c1cnc(Nc2ncc(-c3cnc4ccc(NC5CCNCC5)nn34)cn2)cn1 [Compound 40] | – | – | – | 1.23 | – | – | – | – |
| Fc1cccnc1Nc1ncc(-c2cnc3ccc(NC4CCC(N5CCOCC5)CC4)nn23)cn1 (centres unmarked) [Compound 41] | – | – | – | – | – | – | – | Stage of action (before or after DNA synthesis) (P. falciparum 3D7 [2]): late schizont; Developmental arrest seen in smears (P. falciparum 3D7 [2]; parasites about 21 h after invasion, 48 h at 10 times the EC50 determined by FACS (compound C 0.3 μM, compound D 4 μM)): arrested prior to merozoite egress; Stage of action (P. falciparum 3D7 [2]): Late schizont; EC50 (3D7 PKG T618Q; [5]): 0.923 µM; EC50 (P. falciparum 3D7 [1]; [6]): > 1000 µM; EC50 (P. falciparum 3D7 [1]; [7]): 0.04 µM; EC50 (P. falciparum 3D7 [1]; [8]): 0.037 µM; EC50 (P. falciparum 3D7 [1]; [9]): 0.042 µM |
| CNc1ccc2ncc(-c3ccc(NCCC(C)C)nc3)n2n1 [Compound 42] | – | – | – | – | – | – | – | 3D7 PKG T618Q/3D7 EC50 ratio (3D7 PKG T618Q; Table 2): 1.5; EC50 (3D7 PKG T618Q; [10]): 1.23 µM; Ratio 3D7 PKG T618Q/3D7 (3D7 PKG T618Q): 1; EC50 (P. falciparum 3D7 [1]; [11]): 0.836 µM; IC50 (CDPK1; Table 2): 0.081 µM |
| CC(C)CCNc1ccc(-c2cnc3ccc(NC4CCN(C)CC4)nn23)cn1 [Compound 43] | – | – | – | – | – | – | – | EC50 (3D7 PKG T618Q; [10]): 0.093 µM; EC50 (P. falciparum 3D7 [1]; Table S2, 96 h, read-out: Parasite inhibition EC50, 3D7): 0.079 µM |
| CC(C)CNc1ncc(-c2cnc3ccc(NC4CCN(C)CC4)nn23)cn1 [Compound 44] | – | – | – | – | – | – | – | 3D7 PKG T618Q/3D7 EC50 ratio (3D7 PKG T618Q; Table 2): 2.0; EC50 (3D7 PKG T618Q; [10]): 0.477 µM; Ratio 3D7 PKG T618Q/3D7 (3D7 PKG T618Q): 2; EC90 (P. falciparum 3D7 [1]; 3D7 parasites): 0.65 µM; EC50 (P. falciparum 3D7 [1]; [11]): 0.236 µM; IC50 (CDPK1; Table 2): 0.065 µM |
